Experiments:
[1] = target: T1, airway M3 receptors (trachea) (Rattus norvegicus, UniProt P08483); experiment: Antagonism against airway M3 receptors in an isolated rat trachea
T1 construct: the trachea was excised; from tissue; host or cells: isolated rat trachea
Experimental: 3) Tests for antagonism against the airway M3 receptors in an isolated rat trachea
These tests were performed according to an ordinary method. A male SD strain rat (weighing 300-500 g) was killed by exsanguination, and the trachea was excised. Annular segments (2 mm wide) were cut out from the trachea and cut open at the anterior cartilage part to make transversely sectioned trachea preparations. A preparation was suspended in a Magnus tube filled with 5 ml of Krebs-Henseleit nutrient solution (gassed with 95% O2 -5% CO2 and kept at 32° C.) with an initial tension of 1.0 g and a resting tension of 0.6 g. The tension of the preparation was recorded isometrically. After being equilibrated for an hour, the preparation was made to contract twice by treatment with 10^-4 M carbachol, and the second contraction induced by carbachol was used as the reference contraction. After the preparation was washed with fresh solution to make a return to the base line, a test compound was administered thereto (or no treatment was made). Ten minutes later, carbachol (10^-8 to 10^-3 M) was cumulatively administered in three-fold increasing doses to obtain a dose-response curve. The dose-response curve was constructed by expressing responses as percentages based on the reference contraction of the preparation. The antagonistic potency (KB value) of the test compound (i.e., a compound in accordance with the present invention) was determined from the degree of shift of the dose-response curve obtained by treatment with the test compound.

muscarinic M2 receptors = target: T2, muscarinic M2 receptors (Rattus norvegicus, UniProt P10980); experiment: Bradycardia in rats (acetylcholine-induced); type: in vivo; settings: iv, 5 min, i.v., 5 minutes after administration, 50% inhibition of acetylcholine-induced bradycardia, read-out: Bradycardia ID50
T2 construct: a membrane specimen from the heart was used as the membrane specimen; from tissue; host or cells: rat heart membranes (SD rat)
T2 sequence (P10980 1-466): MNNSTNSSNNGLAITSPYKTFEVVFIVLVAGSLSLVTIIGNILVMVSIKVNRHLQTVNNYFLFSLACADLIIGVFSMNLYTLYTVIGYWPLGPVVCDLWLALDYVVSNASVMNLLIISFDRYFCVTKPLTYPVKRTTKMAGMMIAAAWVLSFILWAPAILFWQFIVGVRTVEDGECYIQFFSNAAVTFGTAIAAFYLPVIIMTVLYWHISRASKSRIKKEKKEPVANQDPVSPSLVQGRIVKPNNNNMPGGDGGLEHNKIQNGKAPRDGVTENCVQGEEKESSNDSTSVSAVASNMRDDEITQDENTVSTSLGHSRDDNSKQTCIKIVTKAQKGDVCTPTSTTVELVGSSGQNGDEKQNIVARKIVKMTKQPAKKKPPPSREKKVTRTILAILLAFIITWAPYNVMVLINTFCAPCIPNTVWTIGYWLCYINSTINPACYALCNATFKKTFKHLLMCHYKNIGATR
Experimental: 6) Tests for bradycardia in rats
Eight- to eleven-weeks-old male rats of the Sprague-Dawley strain, weighing 300-400 g, were anesthetized with urethane (750 mg/kg, i.p.) and α-chloralose (37.5 mg/kg, i.p.). A bronchus was intubated, and the right jugular vein was cannulated for drug administration. […] To evoke bradycardia, acetylcholine (50 μg/kg, i.v.) was administered to the animals. Mean values for the acetylcholine-induced decrease in heart rate as measured five minutes before (control) and five minutes after test compound administration were calculated and the results were expressed as percentages relative to the control response. The ID50 value was calculated from the dose-response curve of the test compound using probit analysis and defined as the drug dose that inhibited the acetylcholine-induced bradycardia in the control group by 50%.

muscarinic M3 receptor [2] = target: T3, muscarinic M3 receptor (Rattus norvegicus, UniProt P08483); experiment: in vivo; design: from tissue; host or cells: living rat, airways; settings: iv, read-out: Mydriasis ED50
Experimental: Tests for antagonism against muscarinic M3 receptor (in vivo)
3) Tests for mydriasis in rats
Five- to seven-weeks-old male rats of the Sprague-Dawley strain were anesthetized with pentobarbital (65 mg/kg, i.p.), and a cannula was inserted into the right jugular vein for purposes of drug administration. By using a graduated scale (pulilometer), pupillary responses to drugs were measured to the nearest 0.1 mm at the point of the greatest diameter. […] Responses were expressed as percentages of the maximal increase in pupil diameter induced by administration of atropine (30 μg/kg, i.v.). The ED50 value was calculated from the dose-response curve of the test compound using probit analysis and defined as the drug dose that induced 50% of the maximal response.

muscarinic M3 receptor [3] = target: T3, muscarinic M3 receptor; experiment: Inhibition of binding to muscarinic M3 receptors ([3H]-N-methylscopolamine, lacrimal gland membrane); design: a membrane specimen from the lacrimal glands was used as the membrane specimen; from tissue; host or cells: rat lacrimal gland membranes (SD rat)
Experimental: In these tests, their inhibitory and antagonistic effects were expressed in terms of the dissociation constant (Ki) of each test compound which was calculated from its concentration (IC50 ) causing a 50% inhibition of the binding of a labeled ligand to muscarinic receptors. As the labeled ligand, [^3 H]-telenzepine was used for the muscarinic M1 receptors and [^3 H]-N-methylscopolamine for the muscarinic M2 and M3 receptors.
A male SD strain rat (purchased from Nippon Charles River Co., Ltd.), weighing about 250-350 g, was sacrificed, and the cerebral cortex, heart and lacrimal glands were excised. Using a Polytron (setting 5), each organ was homogenized in 5 volumes of an ice-cold buffer solution (pH 7.4) containing 50 mM tris-HCl, 5 mM magnesium chloride, 1 mM trisodium ethylenediaminetetraacetate and 20% sucrose. The resulting homogenate was centrifuged at 3,000×g at 4° C. for 15 minutes, and the supernatant was filtered through gauze and ultracentrifuged at 100,000×g at 4° C. for 45 minutes. The resulting precipitate was suspended in an ice-cold buffer solution (pH 7.4) containing 50 mM tris-HCl and 5 mM magnesium chloride (hereinafter referred briefly to as "tris buffer") and ultracentrifuged at 100,000×g at 4° C. for 45 minutes. The resulting precipitate was suspended in tris buffer so as to give a concentration of 50 mg/ml and stored at -80° C. till use. The membrane specimens so prepared were thawed prior to use and submitted to tests for the inhibition of binding to muscarinic receptors.
4) Tests for the inhibition of binding to the muscarinic M2 receptors
The nonspecific binding of [^3 H]-N-methylscopolamine to receptors was determined by the addition of 1 mM N-methylscopolamine.

T1 sequence (P08483 whole entry): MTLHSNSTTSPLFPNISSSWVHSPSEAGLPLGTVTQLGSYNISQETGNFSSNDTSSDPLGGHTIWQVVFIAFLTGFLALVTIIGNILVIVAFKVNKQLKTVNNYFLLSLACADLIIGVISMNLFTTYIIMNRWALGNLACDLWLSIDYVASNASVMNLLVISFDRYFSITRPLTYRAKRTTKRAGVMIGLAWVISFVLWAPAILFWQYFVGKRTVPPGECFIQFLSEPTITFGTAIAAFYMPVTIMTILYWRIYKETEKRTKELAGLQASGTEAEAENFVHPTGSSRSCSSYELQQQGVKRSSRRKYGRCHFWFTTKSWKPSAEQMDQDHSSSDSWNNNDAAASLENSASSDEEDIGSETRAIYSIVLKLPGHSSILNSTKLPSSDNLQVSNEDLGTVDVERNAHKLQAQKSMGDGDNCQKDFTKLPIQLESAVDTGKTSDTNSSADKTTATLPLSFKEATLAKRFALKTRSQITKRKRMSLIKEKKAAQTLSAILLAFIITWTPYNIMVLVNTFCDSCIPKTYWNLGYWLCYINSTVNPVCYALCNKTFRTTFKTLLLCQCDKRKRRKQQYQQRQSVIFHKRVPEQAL
T3 sequence (P08483 whole entry): as above

CC(C)=CCCN1CCC(NC(=O)C(O)(c2ccccc2)C2CCC2)CC1 (centres unmarked) [Example 1, N-[1-(4-methyl-3-pentenyl)-piperidin-4-yl]-2-cyclobutyl-2-hydroxy-2-phenylacetamide]
Kb ([1]; in vitro, isolated rat trachea, agonist carbachol): 0.019 µM
M2/M3 * ([1]; ratio of KB, right atrium M2 over trachea M3 (* Trachea M3)): 79
M1/M3 * ([1]; ratio of KB, vas deferens M1 over trachea M3 (* Trachea M3)): 6.3
ED50 (muscarinic M2 receptors): > 3 mg/kg
ED50 (muscarinic M3 receptor [2]): 1.4 mg/kg
Ki (muscarinic M3 receptor [3]): 0.0089 µM
M1/M3 (muscarinic M3 receptor [3]; ratio of binding Ki, M1 over M3): 5.0
M2/M3 (muscarinic M3 receptor [3]; ratio of binding Ki, M2 over M3): 96

From patent publication US5750540A, “1,4-di-substituted piperidine derivatives” (Banyu Pharmaceutical Co., Ltd., priority 1995, dated 1998)
